Several values for one entry are separate records, joined by “and”; a condition that tells them apart may be missing. Identical values can stand only once.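 Grown in 96-well plates, cells were treated for 48 hours with each compound at five concentrations. Insufficient inhibition: endpoint recorded as highest concentration tested. Abbreviation: GI50, concentration required for 50% inhibition of growth. The concentration for full growth arrest is given as TGI.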 Activity calls are given as the source filed them. No stated cut-off is given here; in the data, active means GI50 below about 0.43 µM; inactive means the rest.
Test system: MDA-MB-468 breast
Assay: growth of human tumour cells (NCI), 48 h

Row | SMILES | TGI | GI50 | outcome
1 | CCN(Cc1ccccc1Cl)c1ccc(CO)c(Cl)c1 | 116 nM |  | 
2 | CCCCCCCCCCC/C=C\C[C@H](O)C/C=C1/C(=O)C=C[C@@H]1C/C=C\CCCC(=O)OC | 3760 nM | 864 nM | 
3 | COC(=O)c1ccc(NC2=C/C(=N/S(=O)(=O)c3ccc(C(=O)O)cc3)c3ccccc3C2=O)cc1 | 4040 nM | 1710 nM | 
4 | COc1ccc(-c2nn(-c3cccc(NC(=O)Nc4ccccc4)c3)cc2-c2ccncc2)cc1Cl | 6430 nM | 2260 nM | 
5 | Fc1ccc(-c2nn3c(-c4cc(C(F)(F)F)cc(C(F)(F)F)c4)nnc3s2)cc1 | > 50000 nM | 2530 nM | 
6 | Clc1nc(Cl)c2c3c(sc2n1)CCCC3 |  | 2100 nM | 
7 | COc1ccc(-c2nc(Nc3ccc(-c4nc5ccccc5[nH]4)cc3)nc(N3CCOCC3)n2)cc1 | 7650 nM | 2920 nM | 
8 | Nc1ccc(-c2nnc(SCc3ccc(O)c4ncccc34)o2)cc1 | 1160 nM | 38.7 nM | 
9 | CN(C)CCC=C1c2ccccc2C(C)(C)c2ccccc21 | 14000 nM | 2590 nM | 
10 | COc1cc(/C=C2\Oc3cc(OCCCN4CCCC4)ccc3C2=O)cc(OC)c1 | 13000 nM | 2930 nM | 
11 | O=c1c2c(c3ccccc3n1-c1ccccc1)NC(=S)NC2c1ccc(Cl)cc1 (stereo not drawn) | > 100000 nM | 19000 nM | 
12 | Cc1[nH]c(C(=O)Nc2ccccc2OC2CCNCC2)c(Cl)c1Cl | 1900 nM | 930 nM | 
13 | O=c1c2cccc(F)c2sc2c(N3CCNCC3)nc3ccccc3c12 | 3100 nM | 1460 nM | 
14 | CCCCCc1cc[n+](CC(=O)c2ccc([N+](=O)[O-])cc2)cc1 | 8060 nM | 2170 nM | 
15 | Nc1ccccc1NC(=O)c1ccc(CN2CCC/C(=C\c3ccccn3)C2=O)cc1 | 3880 nM | 1330 nM | 
16 | CO[C@]12C=C/C(=C(/C(=O)OCc3cccnc3)C(=O)CCCCCCCC[C@@]3(OC)C=C/C(=C(/C(=O)OCc4cccnc4)C(=O)CCCCCCCC1)O3)O2 | 2300 nM | 919 nM | 
17 | c1ccc(Nc2nc(-c3ccccn3)cs2)nc1 | 11500 nM | 1130 nM | 
18 | COc1cc2nc(-c3ccc(Cl)cc3)cc(OCCCN3CCCC3)c2cc1OC | 3110 nM | 1280 nM | 
19 | O=C(CCCCCCN1CC(=O)N2[C@@H](c3cccc(Br)c3)c3[nH]c4ccccc4c3C[C@H]2C1=O)NO | 5470 nM | 2090 nM | 
20 | O=[N+]([O-])c1ccc(Sc2nc(Cl)nc(NC3CCCC3)n2)cc1 | 7130 nM | 2100 nM | 
21 | Cc1cc2nc3ccc(=[N+](C)C)cc-3sc2cc1N | 2180 nM and 3820 nM | 455 nM and 618 nM | 
22 | O=C(N=Nc1c(O)[nH]c2ccccc12)c1oc2ccccc2c1CN1CCN(c2ccccc2)CC1 | 3890 nM | 1240 nM | 

Row | SMILES | TGI | GI50 | outcome
23 | O=C1C(Nc2ccc(Br)cc2)=C(I)C(=O)c2ncccc21 | 1930 nM | 970 nM | 
24 | Nc1nc2c(nnn2C2OC(CO)C(O)C2O)c(=O)[nH]1 (stereo not drawn) | 5370 nM | 488 nM | 
25 | CCC(C)[C@H](NC(=O)NC(=O)NC(=O)CI)C(=O)OC (stereo partly drawn) | 12600 nM | 3540 nM | 
26 | CC[C@@H](C(=O)[C@H](C)[C@H](O)[C@@H](C)[C@H]1O[C@H]([C@@H](CC)C(=O)O)CC[C@H]1C)C1O[C@]2(C=C[C@@H](O)[C@]3(CC[C@@](C)([C@H]4CC[C@](O)(CC)[C@H](C)O4)O3)O2)[C@H](C)C[C@@H]1C (stereo partly drawn) | 1850 nM | 194 nM | 
27 | Cc1ccc(/C=C/C(=N/N=C(N)N)c2ccccc2)cc1 | 4130 nM | 509 nM | 
28 | NC1CCC(Nc2nc(NCc3cc(Cl)ccc3O)c3ncn(C4CCCC4)c3n2)CC1 (stereo not drawn) | 468 nM | 158 nM | 
29 | CCCC[n+]1c(/C=C\c2c(OC)cc(OC)cc2OC)ccc2ccccc21 | 1380 nM | 241 nM | 
30 | CNc1cc2nc3cc(NC)c(C)cc3cc2cc1C | 1940 nM | 242 nM | 
31 | O=C(O)C1C2C=CC(C2)C1C(=O)O (stereo not drawn) | > 100000 nM | > 100000 nM | 
32 | C=C1CC[C@@H]2[C@](C)(COC(C)=O)[C@H](OC(C)=O)CC[C@@]2(C)[C@@H]1CC(Nc1ccc(S(=O)(=O)Nc2cc(C)on2)cc1)C1=CCOC1=O (stereo partly drawn) | 3290 nM | 1490 nM | 
33 | C=C1CCC2C3(C)COC(c4c(OC)cccc4OC)OC3CCC2(C)C1C/C=C1/C(=O)OCC1O (stereo not drawn) | 3350 nM | 1470 nM | 
34 | Clc1cc2c(nn1)Nc1ccccc1S2 | > 100000 nM | > 100000 nM | 
35 | CC1=C(C(=O)Nc2ccc3[nH]ncc3c2)C(c2ccc(Cl)c(Cl)c2)CC(=O)N1 (stereo not drawn) | > 25000 nM | > 18000 nM | 
36 | CC(C)(CCN=C(N)Nc1ccccn1)c1ccc(C(F)(F)F)cc1 | 22300 nM | 7070 nM | 
37 | CCCCCCC/C=C/[C@H]1O[C@]2(O)C(=O)C=C3C[C@@H](O[C@@H]4O[C@H](CO)[C@@H](O)C(O)[C@@H]4O)C[C@@H]3[C@H]2C=C1C (stereo partly drawn) | 11400 nM | 3420 nM | 
38 | COc1cccc(-n2cc(-c3nc(Nc4cc(C)[nH]n4)c4ccccc4n3)nn2)c1 | 15700 nM | 4320 nM | 
39 | CN1CC[C@]2(c3cccc(O)c3)CC(=O)/C(=C/c3ccccc3)[C@H]1C2 | 6200 nM | 2190 nM | 
40 | COC(C(=O)C(O)C(C)O)C1Cc2cc3cc(OC4CC(OC5CC(O)C(O)C(C)O5)C(O)C(C)O4)c(C)c(O)c3c(O)c2C(=O)C1OC1CC(OC2CC(O)C(OC3CC(C)(O)C(O)C(C)O3)C(C)O2)C(O)C(C)O1 (stereo not drawn) |  |  | inactive
41 | CCOC(=O)c1ccc2c(c1)nc(/C=C/c1ccc(Cl)cc1)n2-c1cc(C(C)(C)C)[nH]n1 | 95600 nM | 4680 nM | 
42 | Cc1cccc2nc3cccc(C(=O)NCCNCCNCCNC(=O)c4cccc5nc6cccc(C)c6nc45)c3nc12 | 1020 nM | 17.2 nM | 
43 | CSc1ccc2c(c1)N(CCC1CCCCN1C)c1ccccc1S2 (stereo not drawn) | 3920 nM | 1780 nM | 
